These are literature values, as cited in US20240228667A9, “Methods for Treating Multiple Myeloma” (Celgene Corporation, priority 2021, published 2024).

The data set relates to acute myeloid leukemia (AML) at relapse. The note with it: CT-011 administered alone.

Regarding “CT-011: anti-PD-1 antibody, a humanized antibody”, the “response in treating acute myeloid leukemia (AML) at relapse” value is reported as “failed to show response”.
